How the values were obtained:
[1] = MMV: MTT Cytotoxicity Assay Day 7 pi of Assay #11 (NO washout), U87-CD4-CXCR4 cells, % cell death @ 5mM compound; format: toxicity, cell-based; conditions: human, u87-cd4-cxcr4, 5000 µM
[2] = MMV: MTT Cytotoxicity Assay Day 7 pi of Assay #6 (compound washed out Day 1 pi), U87-CD4-CCR5 cells, % cell death @ 5mM compound; format: toxicity, cell-based; conditions: human, u87-cd4-ccr5, 5000 µM
[3] = MMV: MTT Cytotoxicity Assay Day 7 pi of Assay #7 (compound washed out Day 1 pi), U87-CD4-CXCR4 cells, % cell death @ 5mM compound; format: toxicity, cell-based; conditions: human, u87-cd4-cxcr4, 5000 µM
[4] = MMV: MTT Cytotoxicity Assay Day 7 pi of Assay #10 (NO washout), U87-CD4-CCR5 cells, % cell death @ 5mM compound; format: toxicity, cell-based; conditions: human, u87-cd4-ccr5, 5000 µM
[5] = test system: Human immunodeficiency virus 1; assay: MMV: HIV CXCR4-tropic env NL4-3 pseudovirus assay produces luciferase signal in lieu of replicating viral particles Day 3 pi, U87-CD4-CXCR4, % inhibition at 5 mM compound; format: functional; parameters: dose or concentration left out as unconfirmed; conditions: Human immunodeficiency virus 1, NL4-3, U87.CD4.CXCR4, 72 h
[6] = MMV: MTT Cytotoxicity Assay Day 3 pi, U87-CD4-CCR5 cells, % cell death @ 5mM compound; format: toxicity, cell-based; conditions: human, u87-cd4-ccr5, 5000 µM
[7] = MMV: MTT Cytotoxicity Assay Day 3 pi, U87-CD4-CXCR4 cells, % cell death @ 5mM compound; format: toxicity, cell-based; conditions: human, u87-cd4-cxcr4, 5000 µM
[8] = test system: Human immunodeficiency virus 1; assay: MMV: HIV CXCR4-tropic env HxB2 pseudovirus assay produces luciferase signal in lieu of replicating viral particles Day 3 pi, U87-CD4-CXCR4, % inhibition at 5 mM compound; format: functional; parameters: dose or concentration left out as unconfirmed; conditions: Human immunodeficiency virus 1, HxB2, U87.CD4.CXCR4, 72 h
[9] = test system: Human immunodeficiency virus 1; assay: MMV: HIV JRFL CCR5-tropic replication-competent virus, virus & compound washed out Day 1 pi, P24 ELISA Day 7 pi, U87-CD4-CCR5, % inhibition at 5 mM compound; format: functional; parameters: dose or concentration left out as unconfirmed; conditions: Human immunodeficiency virus 1, JR-FL

| SMILES | % Cell Death [1] | % Cell Death [2] | % Cell Death [3] | % Cell Death [4] | inhibition [5] [%] | % Cell Death [6] | % Cell Death [7] | inhibition [8] [%] | inhibition [9] [%] |
| --- | --- | --- | --- | --- | --- | --- | --- | --- | --- |
| COc1ccc(Nc2nc(N/N=C/c3ccc(O)cc3)nc(Nc3ccc([N+](=O)[O-])cc3)n2)cc1 | 0 | 33 | 50 | 11 | 7 | 11 | 23 | – | – |
| N=c1n(CCN2CCCCC2)c2ccccc2n1CC(=O)c1ccc(Cl)c(Cl)c1 | -14 | -5 | 4 | -3 | 0 | -21 | 9 | – | – |
| COc1ccc(/C=C2/SC(=Nc3ccccc3)NC2=O)cc1 | 66 | 93 | 77 | 115 | – | 54 | 28 | 3 | – |
| COc1cc(C(=O)Nc2nc3c(cc4c5c(cccc53)CC4)s2)cc(OC)c1OC | 110 | 42 | 68 | 136 | – | 105 | 56 | 0 | – |
| COc1ccc(-c2cc3c(SCC(=O)Nc4cc(C(F)(F)F)ccc4Cl)nccn3n2)cc1 | 13 | 5 | -22 | 18 | – | 24 | 41 | 6 | – |
| Cc1cc(NCCN2CCCCC2)c2ccc3ccccc3c2n1 | 5 | 30 | 16 | 31 | – | 64 | 34 | 1 | – |
| CCOC(=O)C1=C(C)N=c2sc(=Cc3ccccc3O)c(=O)n2C1c1ccc(OC)c2ccccc12 (centres undefined) | 113 | 40 | 66 | 90 | – | 105 | 42 | -1 | – |
| CCC(C)NCC(O)(c1ccc(Cl)cc1)c1ccc(Cl)cc1 (centres undefined) | 3 | -11 | -33 | 31 | 2 | -1 | 23 | – | -2 |
| CCC(c1ccccc1)c1nn2c(-c3cccs3)nnc2s1 (centres undefined) | 73 | 18 | 28 | 41 | 9 | 3 | 41 | – | 0 |
| Oc1ccc(-c2nc(-c3ccc4oc5ccc(-c6[nH]c(-c7ccc(O)cc7)nc6-c6ccccc6)cc5c4c3)c(-c3ccccc3)[nH]2)cc1 | 89 | -12 | 17 | 56 | 1 | -2 | 46 | – | – |
| CCC1(C)CC(CCNCc2ccccc2O)(c2ccc(C)cc2)CCO1 (centres undefined) | 19 | 9 | 0 | 27 | – | -22 | 14 | 0 | – |
| COc1ccc(C=C2SC(Nc3ccc(F)cc3)=NC2=O)c(OC)c1 | 65 | -49 | 0 | 96 | – | 25 | 28 | 4 | – |
| Cc1ccc(C)c(Cn2c(N3CCC(C(=O)NCc4cccs4)CC3)nc3ccccc32)c1 | 47 | 57 | 2 | 98 | – | 108 | 38 | 7 | – |
| COc1ccccc1NC1=C(N2CCCCC2)C(=O)c2ccccc2C1=O | -50 | 22 | 8 | 19 | 5 | 34 | 15 | – | 1 |
| Cc1cc(NC(=O)C2c3ccccc3C(=O)N(CC(C)C)C2c2cccs2)no1 (centres undefined) | -16 | 55 | -20 | 36 | 8 | 23 | 26 | – | 7 |
| OC(CNC1CCCCC1)Cn1c2ccc(I)cc2c2cc(I)ccc21 (centres undefined) | 26 | 3 | -9 | -2 | – | 27 | 25 | 3 | 3 |

| SMILES | % Cell Death [1] | % Cell Death [2] | % Cell Death [3] | % Cell Death [4] | inhibition [5] [%] | % Cell Death [6] | % Cell Death [7] | inhibition [8] [%] | inhibition [9] [%] |
| --- | --- | --- | --- | --- | --- | --- | --- | --- | --- |
| O=C(Nc1ccsc1C(=O)NC1CCCCC1)c1ccc(F)cc1 | -14 | -4 | -43 | -2 | 3 | -22 | 8 | – | -2 |
| Cc1ccc(C2CC(C(F)(F)F)n3nc(C(=O)N4CCN(C(c5ccccc5)c5ccccc5)CC4)cc3N2)cc1 (centres undefined) | 58 | 77 | 62 | 75 | – | 86 | 64 | 5 | – |
| CC1CC(C)CN(C(=O)c2ccc(Cl)cc2Cl)C1 (centres undefined) | -51 | -14 | -16 | -31 | -1 | -5 | 31 | – | 5 |
| COc1ccc2c(=O)cc(C(Cl)(Cl)Cl)oc2c1 | 95 | 23 | 23 | 100 | – | 90 | 41 | 8 | – |
| CC(C)(C)CC(C)(C)NCC(O)COc1ccc2c(c1)CCC2.Cl (centres undefined) | 7 | 2 | -11 | -10 | -1 | -4 | 10 | 4 | – |
| CCCCCCn1c(=N)n(CC(O)COc2cccc(C)c2)c2ccccc21.Cl (centres undefined) | 50 | 33 | -16 | 71 | – | 43 | 17 | 2 | – |
| Br.CCn1c2c(c(=N)c3c1CCC3)CCCC2 | -11 | -8 | -30 | -14 | -2 | -56 | 30 | – | – |
| O=C(NCc1ccco1)C1CCN(S(=O)(=O)c2ccc(Br)cc2)CC1 | -5 | 5 | -9 | -12 | – | 14 | 32 | 8 | – |
| COc1ccc(-c2nc3cc(Cc4ccc5[nH]c(-c6ccc(OC)cc6)nc5c4)ccc3[nH]2)cc1 | 6 | -21 | -21 | 4 | – | -6 | 23 | 1 | – |
| Oc1c(CN2CCN(c3ccccc3F)CC2)cc(Br)c2cccnc12 | 34 | 53 | 51 | 92 | – | 43 | 51 | 1 | – |
| COc1ccc(C(=O)C2CC2c2ccc(Cl)cc2)cc1 (centres undefined) | 35 | 6 | 66 | 32 | -2 | 40 | 29 | – | 3 |
| CCc1ccc(Nc2cc(C)nc3nc(C)nn23)cc1 | 93 | 4 | 4 | 50 | – | 23 | 46 | 6 | – |
| CCOC(=O)c1cnc2ccc(OC)cc2c1NCc1ccccc1 | 46 | -10 | 12 | -9 | – | -52 | 36 | -2 | – |
| CC(C)(C)c1ccc(C2CC3=Nc4ccccc4N(C(=O)c4ccccc4Cl)C(c4ccc(F)cc4)C3=C(O)C2)cc1 (centres undefined) | 5 | 8 | 17 | 28 | – | -12 | 31 | -1 | – |
| CCOC(=O)c1c[nH]c2c(CC)cccc2c1=O | 35 | 36 | 14 | -1 | 7 | 39 | 76 | – | 8 |
| CCCCc1c(CCC)c(=N)c2ccccc2n1C.I | -12 | 27 | 55 | -4 | 7 | -13 | 21 | – | – |

— ChEMBL document CHEMBL3301472, “MMV Malaria Box HIV and cytotoxicity screening”
